In US20210154162A1, “DRUG AND PHARMACEUTICAL COMPOSITION CONTAINING TRANSPORT PROTEIN INHIBITOR, AND USE” (Institute of Basic Medical Sciences Chinese Academy of …, priority 2018, published 2021):

How the values were obtained:
PD-1 [1] = test: PD-1 expression in anti-CD3/CD28 bead-activated CD8+ T cells treated with Kyn or other tryptophan metabolites (flow cytometry); type: cell-based, mouse; details: Kyn at different concentrations; 200 μM for different time periods; anti-CD3/CD28 microbeads
Procedure: (4) The isolated splenic CD8^+ T cells were incubated with anti-CD3/CD28 beads in the presence of different concentrations of Kyn. PD-1 expression was determined by flow cytometry.
(5) The experimental steps were the same as those of step (4), except that CD8^+ T cells were treated with 200 μM Kyn for different time periods as shown in FIG. 2E.
(6) Anti-CD3/CD28 bead-activated CTLs were treated with PBS, 200 μM Kyn or other metabolites (500 μM) from the tryptophan pathway (melatonin, kynurinic acid and indoxyle sulphate). After 24 h, PD-1 expression was determined by flow cytometry.

B16 melanoma = test: B16 melanoma-bearing C57BL/6 mice treated with Kyn, DMF or Kyn+DMF; type: in vivo, mouse
Procedure: (9) C57BL/6 mice with 5×5 mm B16 melanoma were treated with PBS, Kyn (50 μg/mouse, i.p., once every two days), DMF (5 μg/mouse, o.t., once every day) or Kyn+DMF for 6 days. PD-1 expression in CD8^+ T cells isolated from tumors was determined by flow cytometry (n=5). (14) The experimental steps were the same as those of step (9), except that the tumors were weighed. The weighing results were as shown in FIG. 6P. *p<0.05, **p<0.01; #p<0.05, ##p<0.01, as compared with CTL group. The data represented mean±SEM.

PD-1 [2] = test: PD-1 expression in resting CD8+ T cells treated with Kyn (flow cytometry); type: cell-based, mouse
Procedure: (1) CD8^+ T cells were treated with Kyn (200 μM) for the time periods. The expression of PD-1 was determined by flow cytometry.

PD-1 promoter = PD-1 promoter luciferase reporter in HEK293T cells; type: cell-based; details: Kyn 48 h
Procedure: (6) HEK293T cells were transiently co-transfected with the luciferase reporter PGL3 coupled to the PD-1 promoter together with an AhR or an empty plasmid for 24 h and then treated with Kyn for another 48 h.

OT-1 CD8^+ T cells = test: IFN-γ expression of OT-1 CD8+ T cells co-cultured with OVA-peptide loaded APCs; type: cell-based, mouse; details: OT-1 CD8+ T cells pretreated with Kyn 200 μM 72 h, upon PD-1 blockade
Procedure: (10) Splenic APCs pulsed with OVA257-264 (2 μg/ml) were co-cultured with OT-1 CD8^+ T cells in the presence of IgG or anti-PD-1 neutralizing antibody (10 μg/ml) for 72 h. IFN-γ expression was measured by flow cytometry (left). Or, CD8^+ T cells from OT-1 mice were treated with Kyn (200 μM) for 72 h, then co-cultured with OVA-peptide loaded APCs and treated with or without anti-PD-1 neutralizing antibody for 72 h (right). The data represented mean±SEM.

PAT4 and SLC7A8 [3] = test: PAT4 and SLC7A8 expression in CD8+ T cells from breast cancer patients (real-time PCR); type: cell-based, human; details: human CD8+ T cells, Kyn, 48 h
Procedure: (8) CD8^+ T cells from breast cancer patients were treated with PBS, Kyn ([…] (20 μM) or Kyn/CH (50 μM) for 48 h. The expression of PAT4 and SLC7A8 was determined by real-time PCR. The determination results were as shown in FIG. 7I.

PAT4 and SLC7A8 [4] = test: PAT4 and SLC7A8 expression in activated CD8+ T cells (real-time PCR, immunostaining); type: cell-based, mouse; details: activated CD8+ T cells, Kyn 200 μM, 24 h
Procedure: (2) Activated CD8^+ T cells were treated with PBS or Kyn (200 μM) for 24 h. The expression of PAT4 and SLC7A8 was determined by real-time PCR (left) and immunostaining (right). Bar, […].
(6) The mRNA expression of PAT4 and SLC7A8 was determined in activated CD8^+ T cells treated with PBS, Kyn, Kyn/CH-223191 (10 μM) or Kyn/DMF (20 μM) for 48 h.

PD-1 [5] = test: Effect of SAR and BCH on PD-1 expression in mouse CD8+ T cells (flow cytometry); type: cell-based; details: 200 μM Kyn, 48 h
Procedure: Mouse splenic CD8^+ T cells were obtained by magnetic bead sorting, and seeded into a U-shaped bottom 96-well plate (100000 cells/well) while anti-CD3/CD28 magnetic beads were added to activate T cells. The culture medium was RPMI-1640 added with 10 ng/mL mouse IL-2 and […] β-mercaptoethanol. Cells were grouped and treated with drugs as follows.
Control group 1 (PBS): culture medium+PBS;
Experimental group 2 (Kyn): culture medium+200 μM Kyn;
Experimental group 3 (Kyn+SAR): culture medium+200 μM Kyn+10 mM SAR;
Experimental group 4 (Kyn+BCH): culture medium+200 μM Kyn+100 μM BCH;
The expression level of PD-1 in CD8^+ T cells of each group was determined by flow cytometry after 48 h.

Nc1ccccc1C(=O)CC(N)C(=O)O (centres unmarked) [Kyn, kynurenine]
PD-1 expression (PD-1 [1]): markedly upregulated
PD-1 expression in CD8+ T cells isolated from tumor, spleen or lymph nodes (B16 melanoma; Kyn 50 μg/mouse i.p. once every two days, 6 days): upregulate
tumor growth (tumors weighed) (B16 melanoma; Kyn-treatment): accelerated tumor growth
time point of initial increase of PD-1 (PD-1 [2]; Kyn alone): 48 h
PD-1 expression (PD-1 [2]; Kyn alone 200 μM): enough to upregulate PD-1
increase of the luciferase activity (PD-1 promoter; HEK293T overexpressing AhR): 12 fold
increase of the luciferase activity (PD-1 promoter; HEK293T with intrinsic AhR expression (empty control plasmid)): 4 fold
production of IFN-γ (OT-1 CD8^+ T cells): upregulated
expression of SLC7A8 and PAT4 (PAT4 and SLC7A8 [3]): upregulated
expression of SLC7A8 and PAT4 (PAT4 and SLC7A8 [4]): strikingly resulted in the upregulation
expression of PD-1 in CD8+ T cells (PD-1 [5]): significant increased
